Source: PubChem BioAssay (NCI)
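Tested at 5 concentrations; 48 h exposure; 96-well plates; endpoints linearly interpolated, else capped at highest concentration. At the GI50, growth is halved. TGI denotes the concentration required for complete inhibition of growth.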

What was measured:
Assay in all cases: NCI-60 cell line screen, 48 h
SK-MEL-28 melanoma = system: SK-MEL-28 melanoma
PC-3 prostate = system: PC-3 prostate
DU-145 prostate = system: DU-145 prostate
EKVX NSCLC = system: EKVX NSCLC
OVCAR-3 ovarian = system: OVCAR-3 ovarian
SK-MEL-5 melanoma = system: SK-MEL-5 melanoma
LOX IMVI melanoma = system: LOX IMVI melanoma
OVCAR-5 ovarian = system: OVCAR-5 ovarian
UACC-62 melanoma = system: UACC-62 melanoma
HCT-15 colon = system: HCT-15 colon
HCC-2998 colon = system: HCC-2998 colon
BT-549 breast = system: BT-549 breast
COLO 205 colon = system: COLO 205 colon
SF-539 CNS = system: SF-539 CNS
A549 NSCLC = system: A549 NSCLC
SF-295 CNS = system: SF-295 CNS
786-0 renal = system: 786-0 renal
CAKI-1 renal = system: CAKI-1 renal
UO-31 renal = system: UO-31 renal
K-562 leukemia = system: K-562 leukemia
KM12 colon = system: KM12 colon
SK-OV-3 ovarian = system: SK-OV-3 ovarian
UACC-257 melanoma = system: UACC-257 melanoma
NCI-H23 lung = system: NCI-H23 lung
ACHN renal = system: ACHN renal
SW-620 colon = system: SW-620 colon
M14 melanoma = system: M14 melanoma
HL-60(TB) leukemia = system: HL-60(TB) leukemia
RPMI-8226 leukemia = system: RPMI-8226 leukemia
NCI/ADR-RES ovarian = system: NCI/ADR-RES ovarian
SNB-19 CNS = system: SNB-19 CNS
SK-MEL-2 melanoma = system: SK-MEL-2 melanoma
SR leukemia = system: SR leukemia
U251 CNS = system: U251 CNS
IGROV1 ovarian = system: IGROV1 ovarian
HT29 colon = system: HT29 colon
NCI-H460 lung = system: NCI-H460 lung
A498 renal = system: A498 renal
HCT-116 colon = system: HCT-116 colon
OVCAR-4 ovarian = system: OVCAR-4 ovarian
SNB-75 CNS = system: SNB-75 CNS
MDA-MB-231 breast = system: MDA-MB-231 breast
OVCAR-8 ovarian = system: OVCAR-8 ovarian
MCF7 breast = system: MCF7 breast
MDA-MB-435 = system: MDA-MB-435
HOP-62 NSCLC = system: HOP-62 NSCLC
SN12C renal = system: SN12C renal
NCI-H226 lung = system: NCI-H226 lung
RXF 393 renal = system: RXF 393 renal
TK-10 renal = system: TK-10 renal
HOP-92 NSCLC = system: HOP-92 NSCLC
SF-268 CNS = system: SF-268 CNS
T-47D breast = system: T-47D breast
MALME-3M melanoma = system: MALME-3M melanoma
HS 578T breast = system: HS 578T breast
NCI-H522 lung = system: NCI-H522 lung
CCRF-CEM leukemia = system: CCRF-CEM leukemia

For `O=S(=O)(c1ccccc1)N1CN2CN(C1)CN(S(=O)(=O)c1ccccc1)C2`, the TGI (SK-MEL-28 melanoma) was > 100 µM, the TGI (PC-3 prostate) was > 100 µM and the TGI (DU-145 prostate) was > 100 µM. For the same molecule, the TGI (EKVX NSCLC) was > 100 µM, the TGI (OVCAR-3 ovarian) was > 100 µM and the TGI (SK-MEL-5 melanoma) was > 100 µM. The TGI (LOX IMVI melanoma) was > 100 µM, the TGI (OVCAR-5 ovarian) was > 100 µM and the TGI (UACC-62 melanoma) was > 100 µM. The TGI (HCT-15 colon) was > 100 µM, the TGI (HCC-2998 colon) was > 100 µM and the TGI (BT-549 breast) was > 100 µM. For the same molecule, the TGI (COLO 205 colon) was > 100 µM, the TGI (SF-539 CNS) was > 100 µM and the TGI (A549 NSCLC) was > 100 µM. The TGI (SF-295 CNS) was > 100 µM, the TGI (786-0 renal) was > 100 µM and the TGI (CAKI-1 renal) was > 100 µM. For the same molecule, the TGI (UO-31 renal) was > 100 µM, the TGI (K-562 leukemia) was > 100 µM and the TGI (KM12 colon) was > 100 µM. For the same molecule, the TGI (SK-OV-3 ovarian) was > 100 µM, the TGI (UACC-257 melanoma) was > 100 µM and the TGI (NCI-H23 lung) was > 100 µM. For the same molecule, the TGI (ACHN renal) was > 100 µM, the TGI (SW-620 colon) was > 100 µM and the TGI (M14 melanoma) was > 100 µM. For the same molecule, the TGI (HL-60(TB) leukemia) was > 100 µM, the TGI (RPMI-8226 leukemia) was > 100 µM and the TGI (NCI/ADR-RES ovarian) was > 100 µM. For the same molecule, the TGI (SNB-19 CNS) was > 100 µM, the TGI (SK-MEL-2 melanoma) was > 100 µM and the TGI (SR leukemia) was > 100 µM. For the same molecule, the TGI (U251 CNS) was > 100 µM, the TGI (IGROV1 ovarian) was > 100 µM and the TGI (HT29 colon) was > 100 µM. For the same molecule, the TGI (NCI-H460 lung) was > 100 µM, the TGI (A498 renal) was > 100 µM and the TGI (HCT-116 colon) was > 100 µM. For the same molecule, the TGI (OVCAR-4 ovarian) was > 100 µM, the TGI (SNB-75 CNS) was 66.1 µM and the TGI (MDA-MB-231 breast) was > 100 µM. For the same molecule, the TGI (OVCAR-8 ovarian) was > 100 µM, the TGI (MCF7 breast) was > 100 µM and the TGI (MDA-MB-435) was > 100 µM. For the same molecule, the TGI (HOP-62 NSCLC) was > 100 µM, the TGI (SN12C renal) was > 100 µM and the TGI (NCI-H226 lung) was > 100 µM. For the same molecule, the TGI (RXF 393 renal) was > 100 µM, the TGI (TK-10 renal) was > 100 µM and the TGI (HOP-92 NSCLC) was > 100 µM.
`Cc1cc(C)c2c(c1)CC1(Cc3ccc(C)c(C)c3C1=O)C2=O` (stereo unspecified) was tested, and the TGI (SK-MEL-28 melanoma) was > 100 µM, the TGI (PC-3 prostate) was > 100 µM and the TGI (DU-145 prostate) was > 100 µM. The TGI (OVCAR-3 ovarian) was > 100 µM, the TGI (SK-MEL-5 melanoma) was > 100 µM and the TGI (LOX IMVI melanoma) was > 100 µM. For the same molecule, the TGI (OVCAR-5 ovarian) was > 100 µM, the TGI (UACC-62 melanoma) was > 100 µM and the TGI (HCC-2998 colon) was > 100 µM. For the same molecule, the TGI (SF-268 CNS) was > 100 µM, the TGI (BT-549 breast) was > 100 µM and the TGI (SF-539 CNS) was > 100 µM. For the same molecule, the TGI (A549 NSCLC) was > 100 µM, the TGI (786-0 renal) was > 100 µM and the TGI (CAKI-1 renal) was > 100 µM. The TGI (T-47D breast) was > 100 µM, the TGI (UO-31 renal) was > 100 µM and the TGI (MALME-3M melanoma) was > 100 µM. The TGI (SK-OV-3 ovarian) was > 100 µM, the TGI (UACC-257 melanoma) was > 100 µM and the TGI (NCI-H23 lung) was > 100 µM. The TGI (HS 578T breast) was > 100 µM, the TGI (M14 melanoma) was > 100 µM and the TGI (RPMI-8226 leukemia) was > 100 µM. For the same molecule, the TGI (SNB-19 CNS) was > 100 µM, the TGI (SK-MEL-2 melanoma) was > 100 µM and the TGI (U251 CNS) was > 100 µM. The TGI (NCI-H460 lung) was > 100 µM, the TGI (A498 renal) was > 100 µM and the TGI (NCI-H522 lung) was > 100 µM. For the same molecule, the TGI (OVCAR-4 ovarian) was > 100 µM, the TGI (SNB-75 CNS) was > 100 µM and the TGI (MDA-MB-231 breast) was > 100 µM. For the same molecule, the TGI (OVCAR-8 ovarian) was > 100 µM, the TGI (SN12C renal) was > 100 µM and the TGI (RXF 393 renal) was > 100 µM. The TGI (TK-10 renal) was > 100 µM and the TGI (HOP-92 NSCLC) was > 100 µM.
`C[C@@H](Nc1nc(Nc2ccc(F)c(Cl)c2)nc2c(C3=CCNCC3)cccc12)C1CC1` was tested, and the GI50 (DU-145 prostate) was 1.64 µM, the TGI (DU-145 prostate) was 3.04 µM and the GI50 (CCRF-CEM leukemia) was 2.21 µM. It also gave a TGI (CCRF-CEM leukemia) of 5.54 µM, a GI50 (OVCAR-5 ovarian) of 1.53 µM and a TGI (OVCAR-5 ovarian) of 3.25 µM. For the same molecule, the GI50 (UACC-62 melanoma) was 1.82 µM, the TGI (UACC-62 melanoma) was 3.36 µM and the GI50 (SF-539 CNS) was 1.68 µM. For the same molecule, the TGI (SF-539 CNS) was 3.17 µM, the GI50 (CAKI-1 renal) was 1.58 µM and the TGI (CAKI-1 renal) was 2.99 µM. It also gave a GI50 (T-47D breast) of 1.91 µM, a TGI (T-47D breast) of 4.38 µM and a GI50 (ACHN renal) of 1.81 µM. For the same molecule, the TGI (ACHN renal) was 3.32 µM, the GI50 (HS 578T breast) was 1.99 µM and the TGI (HS 578T breast) was 4.82 µM. The GI50 (MDA-MB-231 breast) was 1.72 µM, the TGI (MDA-MB-231 breast) was 3.28 µM and the GI50 (NCI-H226 lung) was 2.31 µM. The TGI (NCI-H226 lung) was 5.03 µM.
